Each molecule was assayed on NIH-3T3/Gli reporter cells (assay: Evaluation of compound: Shh-N-induced luciferase activity in NIH-3T3/Gli reporter cells (Smo inhibitory action)). Settings: NIH3T3, 1 μM compound, mouse Shh-N end fragment supernatant, 48 hr, read-out: inhibition rate (%) at 1 μM.
Assay type: cell-based
Protocol: HEK293 cells were grown in D-MEM medium (Invitrogen) containing 10% fetal bovine serum in a 10 cm dish and pcDNA3.1/mShh-N was introduced into the cells using FuGENE6 (Roche Applied Science). Thereafter, the HEK293 cells were cultured in a carbon dioxide gas incubator at 37° C. for 24 hours, and the medium was exchanged with D-MEM medium (Invitrogen) containing 2% fetal bovine serum. After culturing for 48 hr, a culture supernatant containing recombinant type mouse Shh-N end fragment was obtained by filtration using a filter ([…]).
Using D-MEM (Invitrogen) containing 10% fetal bovine serum, expression plasmid pcDNA3.1 and Gli reporter plasmid (pGL3/δ-cry promoter, 8×Gli binding site) produced by the method of Experimental Example 1 were introduced into NIH-3T3 cells grown in a 10 cm dish by the use of FuGENE6 (Roche Applied Science).
After culture for 24 hr, the cells were recovered, suspended in D-MEM medium containing 10% fetal bovine serum and supplemented with Geneticin (Life Technologies Oriental, Inc.) to a final concentration of 500 μg/ml, diluted to 10^4 cells/ml, plated on a 96 well plate, and cultured in a carbon dioxide gas incubator at 37° C. to give Geneticin resistant transformed cell line.
The obtained transformed cell line was cultured in a 96 well plate, mouse Shh-N end fragment obtained in Experimental Example 3 was added, and NIH-3T3/Gli reporter cell, which is a cell line capable of induction of luciferase expression, was selected.
NIH-3T3/Gli reporter cells cultured in D-MEM (Invitrogen) containing 10% fetal bovine serum were plated in a 96 well white plate at 1×10^4 cells/well, and cultured overnight in a carbon dioxide gas incubator at 37° C. The medium was removed, a compound (50 μl) and culture supernatant of mouse Shh-N end fragment-expressing HEK293 (D-MEM medium containing 2% fetal bovine serum, 50 μl) were added, and the cells were cultured for 48 hr in a carbon dioxide gas incubator at 37° C. Bright-Glo (Promega, 50 μl) was added, and the mixture was stirred, after which luciferase activity was measured by EnVision (PerkinElmer). The inhibition rate was calculated based on the luciferase activity of the control without addition of the compound as 100. The concentration of the compound and the inhibition rate were analyzed by PRISM3.00 (software of GraphPad), based on which the IC50 value (compound concentration necessary for achieving 50% of the maximum value of inhibition rate) of the compound was calculated.
CCc1cc2c(c(OCCF)c(C(=O)NC3CCN(C(=O)CO)CC3)n2C)c(=O)n1CC(=O)c1ccccc1 [Example 142, 6-ethyl-3-(2-fluoroethoxy)-N-[1-(hydroxyacetyl)piperidin-4-yl]-1-methyl-4-oxo-5-(2-oxo-2-phenylethyl)-4,5-dihydro-1H-pyrrolo[3,2-c]pyridine-2-carboxamide] gave an inhibition at 1 µM of 100%. Work on CCCOc1c(C(=O)NC2CCN(C(=O)CO)CC2)n(C)c2cc(CC)n(CC(=O)c3ccccc3)c(=O)c12 [Example 510, 6-ethyl-N-[1-(hydroxyacetyl)piperidin-4-yl]-1-methyl-4-oxo-5-(2-oxo-2-phenylethyl)-3-propoxy-4,5-dihydro-1H-pyrrolo[3,2-c]pyridine-2-carboxamide] yielded an inhibition at 1 µM of 100%. In the case of COc1c(C(=O)NC2CCN(C(=O)CCO)CC2)n(C)c2c1c(=O)n(CC(=O)c1ccccc1)c1ccccc21 [Example 517, N-[1-(3-hydroxypropanoyl)piperidin-4-yl]-3-methoxy-1-methyl-4-oxo-5-(2-oxo-2-phenylethyl)-4,5-dihydro-1H-pyrrolo[3,2-c]quinoline-2-carboxamide], the inhibition at 1 µM is reported as 100%. CCc1cc2c(c(OC(C)C)c(C(=O)NC3CCN(C(=O)CO)CC3)n2C)c(=O)n1CC(=O)c1ccccc1 [Example 522, 6-ethyl-N-[1-(hydroxyacetyl)piperidin-4-yl]-1-methyl-3-(1-methylethoxy)-4-oxo-5-(2-oxo-2-phenylethyl)-4,5-dihydro-1H-pyrrolo[3,2-c]pyridine-2-carboxamide] was tested, and the inhibition at 1 µM was 100%. Work on COc1c(C(=O)NC2CCN(C(=O)CO)CC2)sc2c1c(=O)n(CC(=O)c1ccccc1)c1ccc(F)cc21 [Example 562, 8-fluoro-N-[1-(hydroxyacetyl)piperidin-4-yl]-3-methoxy-4-oxo-5-(2-oxo-2-phenylethyl)-4,5-dihydrothieno[3,2-c]quinoline-2-carboxamide] yielded an inhibition at 1 µM of 100%. COc1c(C(=O)NC2CCN(c3ccncc3)CC2)n(C)c2c1c(=O)n(CC(=O)c1ccccc1)c1ccccc21 [Example 563, 3-methoxy-1-methyl-4-oxo-5-(2-oxo-2-phenylethyl)-N-(1-pyridin-4-ylpiperidin-4-yl)-4,5-dihydro-1H-pyrrolo[3,2-c]quinoline-2-carboxamide] showed an inhibition at 1 µM of 100%. Work on COc1c(C(=O)NC2CCN(c3ccncn3)CC2)n(C)c2c1c(=O)n(CC(=O)c1ccccc1)c1ccccc21 [Example 583, 3-methoxy-1-methyl-4-oxo-5-(2-oxo-2-phenylethyl)-N-(1-pyrimidin-4-ylpiperidin-4-yl)-4,5-dihydro-1H-pyrrolo[3,2-c]quinoline-2-carboxamide] yielded an inhibition at 1 µM of 100%. In the case of COc1c(C(=O)NC2CCN(C(=O)CO)CC2)n(C)c2c1c(=O)n(CC(=O)c1ccccc1)c1ccc(F)cc21 [Example 584, 8-fluoro-N-[1-(hydroxyacetyl)piperidin-4-yl]-3-methoxy-1-methyl-4-oxo-5-(2-oxo-2-phenylethyl)-4,5-dihydro-1H-pyrrolo[3,2-c]quinoline-2-carboxamide], the inhibition at 1 µM is reported as 100%. COc1c(C(=O)NC2CCN(C(=O)CO)CC2)n(C)c2c1c(=O)n(CC(=O)c1ccccc1)c1ncccc21 [Example 643, N-[1-(hydroxyacetyl)piperidin-4-yl]-3-methoxy-1-methyl-4-oxo-5-(2-oxo-2-phenylethyl)-4,5-dihydro-1H-pyrrolo[3,2-c][1,8]naphthyridine-2-carboxamide] showed an inhibition at 1 µM of 100%. Work on COc1c(C(=O)NC2CCN(C(=O)CO)CC2)n(C)c2c1c(=O)n(CC(=O)c1ccccc1)c1ccncc21 [Example 644, N-[1-(hydroxyacetyl)piperidin-4-yl]-3-methoxy-1-methyl-4-oxo-5-(2-oxo-2-phenylethyl)-4,5-dihydro-1H-pyrrolo[3,2-c][1,6]naphthyridine-2-carboxamide] yielded an inhibition at 1 µM of 100%. In the case of CCOc1c(C(=O)NC2CCN(C(=O)CO)CC2)sc2cc(CC)n(CC(=O)c3ccccc3)c(=O)c12 [Example 650, 3-ethoxy-6-ethyl-N-[1-(hydroxyacetyl)piperidin-4-yl]-4-oxo-5-(2-oxo-2-phenylethyl)-4,5-dihydrothieno[3,2-c]pyridine-2-carboxamide], the inhibition at 1 µM is reported as 100%. CCc1cc2c(c(OCC(F)(F)F)c(C(=O)NC3CCN(C(=O)CO)CC3)n2C)c(=O)n1Cc1ccccc1 [Example 654, 5-benzyl-6-ethyl-N-[1-(hydroxyacetyl)piperidin-4-yl]-1-methyl-4-oxo-3-(2,2,2-trifluoroethoxy)-4,5-dihydro-1H-pyrrolo[3,2-c]pyridine-2-carboxamide] was tested, and the inhibition at 1 µM was 100%. CCc1cc2c(c(OCC(F)(F)F)c(C(=O)NC3CCN(C(=O)CO)CC3)n2C)c(=O)n1CC(=O)c1cccc(OC)c1 [Example 656, 6-ethyl-N-[1-(hydroxyacetyl)piperidin-4-yl]-5-[2-(3-methoxyphenyl)-2-oxoethyl]-1-methyl-4-oxo-3-(2,2,2-trifluoroethoxy)-4,5-dihydro-1H-pyrrolo[3,2-c]pyridine-2-carboxamide] gave an inhibition at 1 µM of 100%. CCc1cc2c(c(OCC(F)(F)F)c(C(=O)NC3CCN(C(=O)CO)CC3)n2C)c(=O)n1CC(=O)c1cccc(Cl)c1 [Example 657, 5-[2-(3-chlorophenyl)-2-oxoethyl]-6-ethyl-N-[1-(hydroxyacetyl)piperidin-4-yl]-1-methyl-4-oxo-3-(2,2,2-trifluoroethoxy)-4,5-dihydro-1H-pyrrolo[3,2-c]pyridine-2-carboxamide] was tested, and the inhibition at 1 µM was 100%. CCc1cc2c(c(OCC(F)(F)F)c(C(=O)NC3CCN(C(=O)CO)CC3)n2C)c(=O)n1Cc1ccccc1OC [Example 658, 6-ethyl-N-[1-(hydroxyacetyl)piperidin-4-yl]-5-(2-methoxybenzyl)-1-methyl-4-oxo-3-(2,2,2-trifluoroethoxy)-4,5-dihydro-1H-pyrrolo[3,2-c]pyridine-2-carboxamide] gave an inhibition at 1 µM of 100%. In the case of CCc1cc2c(c(OCC(F)(F)F)c(C(=O)NC3CCN(C(=O)CO)CC3)n2C)c(=O)n1Cc1ccccc1Cl [Example 660, 5-(2-chlorobenzyl)-6-ethyl-N-[1-(hydroxyacetyl)piperidin-4-yl]-1-methyl-4-oxo-3-(2,2,2-trifluoroethoxy)-4,5-dihydro-1H-pyrrolo[3,2-c]pyridine-2-carboxamide], the inhibition at 1 µM is reported as 100%. With CCc1cc2c(c(OCC(F)(F)F)c(C(=O)NC3CCN(C(=O)CO)CC3)n2C)c(=O)n1CCc1ccccc1 [Example 661, 6-ethyl-N-[1-(hydroxyacetyl)piperidin-4-yl]-1-methyl-4-oxo-5-(2-phenylethyl)-3-(2,2,2-trifluoroethoxy)-4,5-dihydro-1H-pyrrolo[3,2-c]pyridine-2-carboxamide] the inhibition at 1 µM was 100%.
